The subject of the experiment is MV-4-11 cells. Nature of the experiment: Gene expression microarray analysis (Affymetrix PrimeView) and GSEA. It is filed as cell-based, human. On the set-up: RFU PODN (11730768_x_at) / Fold change /veh PODN (11730768_x_at) / RFU LINC00158 (11744669_a_at) / Fold change /veh LINC00158 (11744669_a_at) / RFU DUSP10 (11751237_a_at) / Fold change /veh DUSP10 (11751237_a_at) / RFU ID3 (11757404_x_at) / Fold change /veh ID3 (11757404_x_at) / RFU PLEKHG5 (11737974_s_at) / Fold change /veh PLEKHG5 (11737974_s_at) / RFU LRRC4B (11730491_at) / Fold change /veh LRRC4B (11730491_at) / RFU GIMAP4 (11747438_a_at) / Fold change /veh GIMAP4 (11747438_a_at) / RFU KRT8 (11758183_x_at) / Fold change /veh KRT8 (11758183_x_at) / RFU CNN1 (11734310_a_at) / Fold change /veh CNN1 (11734310_a_at) / RFU VPS37D (11726825_at) / Fold change /veh VPS37D (11726825_at) / RFU C10orf10 (11716522_x_at) / Fold change /veh C10orf10 (11716522_x_at) / RFU KIR2DL2 /// KIR2DL4 /// KIR2DL5A /// KIR2DL5B /// KIR2DS1 /// KIR2DS2 /// KIR2DS3 /// KIR2DS4 /// KIR3DL3 /// KIR3DL3 /// KIR3DS1 (11738374_at) / Fold change /veh KIR2DL2 /// KIR2DL4 /// KIR2DL5A /// KIR2DL5B /// KIR2DS1 /// KIR2DS2 /// KIR2DS3 /// KIR2DS4 /// KIR3DL3 /// KIR3DL3 /// KIR3DS1 (11738374_at) / RFU C1QL1 (11718748_at) / Fold change /veh C1QL1 (11718748_at) / RFU TMPRSS4 (11747572_a_at) / Fold change /veh TMPRSS4 (11747572_a_at) / RFU HAMP (11756126_x_at) / Fold change /veh HAMP (11756126_x_at) / RFU RNFT2 (11725882_a_at) / Fold change /veh RNFT2 (11725882_a_at) / RFU NR4A2 (11747474_a_at) / Fold change /veh NR4A2 (11747474_a_at) / RFU ABCC12 (11746883_a_at) / Fold change /veh ABCC12 (11746883_a_at) / RFU TMEM136 (11760407_x_at) / Fold change /veh TMEM136 (11760407_x_at) / RFU CLDN22 /// WWC2 (11732394_at) / Fold change /veh CLDN22 /// WWC2 (11732394_at) / RFU HLA-DPB1 (11760878_x_at) / Fold change /veh HLA-DPB1 (11760878_x_at) / RFU SPINT1 (11716480_a_at) / Fold change /veh SPINT1 (11716480_a_at) / RFU GAP43 (11754022_s_at) / Fold change /veh GAP43 (11754022_s_at) / RFU A4GNT (11735810_at) / Fold change /veh A4GNT (11735810_at) / RFU PRB3 (11715151_x_at) / Fold change /veh PRB3 (11715151_x_at) / RFU TUBB4B (11761932_at) / Fold change /veh TUBB4B (11761932_at) / RFU CAPN14 (11732068_a_at) / Fold change /veh CAPN14 (11732068_a_at) / RFU TMCC2 (11721928_a_at) / Fold change /veh TMCC2 (11721928_a_at) / RFU IRGQ (11745062_a_at) / Fold change /veh IRGQ (11745062_a_at) / RFU FAM174B (11720279_a_at) / Fold change /veh FAM174B (11720279_a_at) / RFU TMPRSS4 (11748680_a_at) / Fold change /veh TMPRSS4 (11748680_a_at) / RFU FAM212B (11763350_a_at) / Fold change /veh FAM212B (11763350_a_at) / RFU PLEKHG5 (11743358_a_at) / Fold change /veh PLEKHG5 (11743358_a_at) / RFU ZSCAN30 (11745921_a_at) / Fold change /veh ZSCAN30 (11745921_a_at) / RFU CMKLR1 (11741424_a_at) / Fold change /veh CMKLR1 (11741424_a_at) / RFU LOC101060620 /// MAPK8IP1 (11723275_at) / Fold change /veh LOC101060620 /// MAPK8IP1 (11723275_at) / RFU SPTSSB (11747773_x_at) / Fold change /veh SPTSSB (11747773_x_at) / RFU PRSS12 (11739890_at) / Fold change /veh PRSS12 (11739890_at) / RFU BIN1 (11741810_x_at) / Fold change /veh BIN1 (11741810_x_at) / RFU WNT11 (11732464_a_at) / Fold change /veh WNT11 (11732464_a_at) / RFU C10orf10 (11716521_a_at) / Fold change /veh C10orf10 (11716521_a_at) / RFU C5orf56 (11738089_at) / Fold change /veh C5orf56 (11738089_at) / RFU CYB561 (11721691_x_at) / Fold change /veh CYB561 (11721691_x_at) / RFU ANKRD19P (11752326_a_at) / Fold change /veh ANKRD19P (11752326_a_at) / RFU OR2T12 /// OR2T33 /// OR2T8 (11738714_s_at) / Fold change /veh OR2T12 /// OR2T33 /// OR2T8 (11738714_s_at) / RFU VCAN (11748164_a_at) / Fold change /veh VCAN (11748164_a_at) / RFU JSRP1 (11732532_at) / Fold change /veh JSRP1 (11732532_at) / RFU KRTAP10-11 (11738290_x_at) / Fold change /veh KRTAP10-11 (11738290_x_at) / RFU MYO3A (11730013_a_at) / Fold change /veh MYO3A (11730013_a_at) / RFU EBF3 (11725865_a_at) / Fold change /veh EBF3 (11725865_a_at) / RFU CAMK2N1 (11719241_x_at) / Fold change /veh CAMK2N1 (11719241_x_at) / RFU C5orf56 (11738088_a_at) / Fold change /veh C5orf56 (11738088_a_at) / RFU OLFML3 (11715873_a_at) / Fold change /veh OLFML3 (11715873_a_at) / RFU LOC100653217 /// NTM (11731650_a_at) / Fold change /veh LOC100653217 /// NTM (11731650_a_at) / RFU MAPK11 (11762145_a_at) / Fold change /veh MAPK11 (11762145_a_at) / RFU FIZ1 (11724087_x_at) / Fold change /veh FIZ1 (11724087_x_at) / RFU OASL (11726364_x_at) / Fold change /veh OASL (11726364_x_at) / RFU SOX15 (11748057_x_at) / Fold change /veh SOX15 (11748057_x_at) / RFU CD79A (11719716_a_at) / Fold change /veh CD79A (11719716_a_at) / RFU HIST1H1D (11736915_at) / Fold change /veh HIST1H1D (11736915_at) / RFU CASKIN2 (11723855_a_at) / Fold change /veh CASKIN2 (11723855_a_at) / RFU LOC730098 (11760151_x_at) / Fold change /veh LOC730098 (11760151_x_at) / RFU OR4N2 (11742367_at) / Fold change /veh OR4N2 (11742367_at) / RFU PRRT2 (11749266_a_at) / Fold change /veh PRRT2 (11749266_a_at) / RFU SNX32 (11753110_a_at) / Fold change /veh SNX32 (11753110_a_at) / RFU CDHR5 (11726645_a_at) / Fold change /veh CDHR5 (11726645_a_at) / RFU RCAN1 (11760418_a_at) / Fold change /veh RCAN1 (11760418_a_at) / RFU FAM167A (11723789_a_at) / Fold change /veh FAM167A (11723789_a_at) / RFU FAM26E (11764081_at) / Fold change /veh FAM26E (11764081_at) / RFU ISYNA1 (11749810_s_at) / Fold change /veh ISYNA1 (11749810_s_at) / RFU ACY1 (11761880_at) / Fold change /veh ACY1 (11761880_at) / RFU 11764098_at / Fold change /veh 11764098_at / RFU SAMD14 (11745864_x_at) / Fold change /veh SAMD14 (11745864_x_at) / RFU NPB (11741838_a_at) / Fold change /veh NPB (11741838_a_at) / RFU TMPRSS6 (11731388_a_at) / Fold change /veh TMPRSS6 (11731388_a_at) / RFU KRTAP10-2 (11738614_at) / Fold change /veh KRTAP10-2 (11738614_at) / RFU ARHGAP8 /// PRR5-ARHGAP8 (11727945_x_at) / Fold change /veh ARHGAP8 /// PRR5-ARHGAP8 (11727945_x_at) / RFU KRTAP5-7 /// NADSYN1 (11734609_at) / Fold change /veh KRTAP5-7 /// NADSYN1 (11734609_at) / RFU RASL12 (11751679_a_at) / Fold change /veh RASL12 (11751679_a_at) / RFU CDKN2B (11736163_a_at) / Fold change /veh CDKN2B (11736163_a_at) / RFU PRF1 (11729649_at) / Fold change /veh PRF1 (11729649_at) / RFU, ZNF638 /// ZNF638-IT1 / Fold change vs veh, ZNF638 /// ZNF638-IT1 / RFU, PANK3 / Fold change vs veh, PANK3 / RFU, SH3YL1 / Fold change vs veh, SH3YL1 / RFU, ZEB2 / Fold change vs veh, ZEB2 / RFU, NRIP1 / Fold change vs veh, NRIP1 / RFU, PTTG1IP / Fold change vs veh, PTTG1IP / RFU, CAPN2 / Fold change vs veh, CAPN2 / RFU, MED14 / Fold change vs veh, MED14 / RFU, SNORA58 / Fold change vs veh, SNORA58 / RFU, C1orf63 / Fold change vs veh, C1orf63 / RFU, LRRFIP1 / Fold change vs veh, LRRFIP1 / RFU, NDUFAF7 / Fold change vs veh, NDUFAF7 / RFU, SLC12A2 / Fold change vs veh, SLC12A2 / RFU, IBTK / Fold change vs veh, IBTK / RFU, ESF1 / Fold change vs veh, ESF1 / Fold change vs veh, TMEM50B / RFU, TAOK1 / Fold change vs veh, TAOK1 / RFU, ACBD3 / Fold change vs veh, ACBD3 / RFU, TMA16 / Fold change vs veh, TMA16 / RFU, RWDD3 / Fold change vs veh, RWDD3 / RFU, BCAT1 / Fold change vs veh, BCAT1 / RFU, EDEM3 / Fold change vs veh, EDEM3 / RFU, TMEM33 / Fold change vs veh, TMEM33 / RFU, WDR75 / Fold change vs veh, WDR75 / RFU, AHCTF1 / Fold change vs veh, AHCTF1 / RFU, TFRC / Fold change vs veh, TFRC / RFU, ZDHHC17 / Fold change vs veh, ZDHHC17 / RFU, NOM1 / Fold change vs veh, NOM1 / RFU, ARL8B / Fold change vs veh, ARL8B / RFU, ZBTB11 / Fold change vs veh, ZBTB11 / RFU, TAMM41 / Fold change vs veh, TAMM41 / RFU, KIAA1704 /// LOC100996395 / Fold change vs veh, KIAA1704 /// LOC100996395 / RFU, ING1 / Fold change vs veh, ING1 / RFU, TRMT61B / Fold change vs veh, TRMT61B / RFU, FUBP3 / Fold change vs veh, FUBP3 / RFU, TP53 / Fold change vs veh, TP53 / RFU, TNKS2 / Fold change vs veh, TNKS2 / RFU, ZFP14 / Fold change vs veh, ZFP14 / RFU, ACTR2 / Fold change vs veh, ACTR2 / RFU, PPP3R1 / Fold change vs veh, PPP3R1 / RFU, PIK3R1 / Fold change vs veh, PIK3R1 / RFU, HNRNPA1 / Fold change vs veh, HNRNPA1 / RFU, RNF170 / Fold change vs veh, RNF170 / RFU, ZNF28 / Fold change vs veh, ZNF28 / RFU, RNGTT / Fold change vs veh, RNGTT / RFU, OGT / Fold change vs veh, OGT / RFU, BRD1 / Fold change vs veh, BRD1 / RFU, MARS / Fold change vs veh, MARS / RFU, ZNF655 / Fold change vs veh, ZNF655 / RFU, FAHD1 / Fold change vs veh, FAHD1 / RFU, BDP1 / Fold change vs veh, BDP1 / RFU, LRRCC1 / Fold change vs veh, LRRCC1 / RFU, ARID1A / Fold change vs veh, ARID1A / RFU, ZNF146 / Fold change vs veh, ZNF146 / RFU, ZNF330 / Fold change vs veh, ZNF330 / RFU, GPN3 / Fold change vs veh, GPN3 / RFU, C9orf123 / Fold change vs veh, C9orf123 / RFU, N4BP2L2 / Fold change vs veh, N4BP2L2 / RFU, ARFIP1 / Fold change vs veh, ARFIP1 / RFU, FAM179B / Fold change vs veh, FAM179B / RFU, BCL10 / Fold change vs veh, BCL10 / RFU, UHRF1BP1L / Fold change vs veh, UHRF1BP1L / RFU, BET1 / Fold change vs veh, BET1 / RFU, CNOT2 / Fold change vs veh, CNOT2 / RFU, ZNF268 / Fold change vs veh, ZNF268 / Fold change vs veh, ZNF507 / RFU, DGCR2 / Fold change vs veh, DGCR2 / RFU, WDSUB1 / Fold change vs veh, WDSUB1 / Fold change vs veh, HSP90B1 /// MIR3652 / RFU, ADSS / Fold change vs veh, ADSS / RFU, GK / Fold change vs veh, GK / RFU, ZNF148 / Fold change vs veh, ZNF148 / RFU, TAF9 / Fold change vs veh, TAF9 / RFU, SLC1A5 / Fold change vs veh, SLC1A5 / RFU, SLMO2 / Fold change vs veh, SLMO2 / RFU, ABCC4 / Fold change vs veh, ABCC4 / RFU, LOC101060439 /// RAP1B / Fold change vs veh, LOC101060439 /// RAP1B / RFU, RFX7 / Fold change vs veh, RFX7 / RFU, GTPBP10 / Fold change vs veh, GTPBP10 / RFU, CNEP1R1 / Fold change vs veh, CNEP1R1 / RFU, BIVM-ERCC5 /// ERCC5 / Fold change vs veh, BIVM-ERCC5 /// ERCC5 / RFU, ILF3 / Fold change vs veh, ILF3 / RFU 11762660_at / Fold change /veh 11762660_at / RFU VCAN (11757783_s_at) / Fold change /veh VCAN (11757783_s_at) / RFU DDX43 (11728927_at) / Fold change /veh DDX43 (11728927_at) / RFU KRT8 (11758188_x_at) / Fold change /veh KRT8 (11758188_x_at) / RFU NKD1 (11759106_at) / Fold change /veh NKD1 (11759106_at) / RFU SRD5A1 (11742802_a_at) / Fold change /veh SRD5A1 (11742802_a_at) / RFU TPSAB1 /// TPSB2 (11721975_s_at) / Fold change /veh TPSAB1 /// TPSB2 (11721975_s_at) / RFU GSTM3 (11746129_a_at) / Fold change /veh GSTM3 (11746129_a_at) / RFU IL23R (11737362_x_at) / Fold change /veh IL23R (11737362_x_at) / RFU TMEM51 (11727254_a_at) / Fold change /veh TMEM51 (11727254_a_at) / RFU PIWIL2 (11732686_x_at) / Fold change /veh PIWIL2 (11732686_x_at) / RFU ORM1 (11744905_x_at) / Fold change /veh ORM1 (11744905_x_at) / RFU CCDC152 (11743942_at) / Fold change /veh CCDC152 (11743942_at) / RFU ECM1 (11717891_a_at) / Fold change /veh ECM1 (11717891_a_at) / RFU IL23R (11748794_a_at) / Fold change /veh IL23R (11748794_a_at) / RFU TNFAIP8L3 (11732012_x_at) / Fold change /veh TNFAIP8L3 (11732012_x_at) / RFU MBOAT4 (11741988_at) / Fold change /veh MBOAT4 (11741988_at) / RFU 11764193_at / Fold change /veh 11764193_at / RFU TMEM53 (11763286_at) / Fold change /veh TMEM53 (11763286_at) / RFU MAGEB2 (11727129_at) / Fold change /veh MAGEB2 (11727129_at) / RFU TMEM200A (11744735_a_at) / Fold change /veh TMEM200A (11744735_a_at) / RFU CCDC152 (11751479_a_at) / Fold change /veh CCDC152 (11751479_a_at) / RFU FAM211A (11726209_a_at) / Fold change /veh FAM211A (11726209_a_at) / RFU RGS16 (11746705_a_at) / Fold change /veh RGS16 (11746705_a_at) / RFU VCAN (11755009_s_at) / Fold change /veh VCAN (11755009_s_at) / RFU RHOB (11743442_s_at) / Fold change /veh RHOB (11743442_s_at) / RFU RGS16 (11720943_a_at) / Fold change /veh RGS16 (11720943_a_at) / RFU RGS16 (11720944_at) / Fold change /veh RGS16 (11720944_at) / RFU, VPS4B / Fold change vs veh, VPS4B / RFU, CREB1 / Fold change vs veh, CREB1 / RFU, DNAJC13 / Fold change vs veh, DNAJC13 / RFU, GNAQ / Fold change vs veh, GNAQ / RFU, CDK5R1 / Fold change vs veh, CDK5R1 / RFU, ZRANB3 / Fold change vs veh, ZRANB3 / RFU, CUL4A / Fold change vs veh, CUL4A / RFU, CCNY / Fold change vs veh, CCNY / RFU, UFL1 / Fold change vs veh, UFL1 / RFU, COG3 / Fold change vs veh, COG3 / RFU, DIAPH2 / Fold change vs veh, DIAPH2 / RFU, SKA2 / Fold change vs veh, SKA2 / RFU, AFF3 / Fold change vs veh, AFF3 / RFU, LMF1 / Fold change vs veh, LMF1 / RFU, IPO11 / Fold change vs veh, IPO11 / RFU, DFFB / Fold change vs veh, DFFB / RFU, FOXP1 / Fold change vs veh, FOXP1 / RFU, CARD8 / Fold change vs veh, CARD8 / RFU, STRN3 / Fold change vs veh, STRN3 / RFU, ADK / Fold change vs veh, ADK / RFU, RASSF2 / Fold change vs veh, RASSF2 / RFU, WIPF1 / Fold change vs veh, WIPF1 / RFU, LARP1B / Fold change vs veh, LARP1B / RFU, RASA1 / Fold change vs veh, RASA1 / RFU, RB1 / Fold change vs veh, RB1 / RFU, PPFIA1 / Fold change vs veh, PPFIA1 / RFU, MAT2A / Fold change vs veh, MAT2A / RFU, CCT5 / Fold change vs veh, CCT5 / RFU, WDR92 / Fold change vs veh, WDR92 / RFU, CUX1 / Fold change vs veh, CUX1 / RFU, TTC7A / Fold change vs veh, TTC7A / RFU, TMEM135 / Fold change vs veh, TMEM135 / RFU, DEPTOR / Fold change vs veh, DEPTOR / RFU, CPM / Fold change vs veh, CPM / RFU, DNAJB6 / Fold change vs veh, DNAJB6 / RFU, CACNA2D3 / Fold change vs veh, CACNA2D3 / RFU, DTX4 / Fold change vs veh, DTX4 / RFU, TFCP2 / Fold change vs veh, TFCP2 / RFU, GMCL1 /// GMCL1P1 / Fold change vs veh, GMCL1 /// GMCL1P1 / RFU, AEBP2 / Fold change vs veh, AEBP2 / RFU, SNHG1 /// SNORD22 /// SNORD25 /// SNORD26 /// SNORD27 /// SNORD28 /// SNORD29 /// SNORD31 / Fold change vs veh, SNHG1 /// SNORD22 /// SNORD25 /// SNORD26 /// SNORD27 /// SNORD28 /// SNORD29 /// SNORD31 / Fold change (Aza/veh), C12orf56 (ProbeSet 11735607_a_at) / Fold change (ACY-1035/veh), C12orf56 (ProbeSet 11735607_a_at) / Fold change (Aza/veh), FGFR1OP (ProbeSet 11751329_s_at) / Fold change (ACY-1035/veh), FGFR1OP (ProbeSet 11751329_s_at) / Fold change (Aza/veh), VPS36 (ProbeSet 11739960_a_at) / Fold change (ACY-1035/veh), VPS36 (ProbeSet 11739960_a_at) / RFU SYPL1 (11715823_x_at) / Fold change /veh SYPL1 (11715823_x_at) / RFU IGFBP7 (11715501_s_at) / Fold change /veh IGFBP7 (11715501_s_at) / RFU REEP3 (11722064_at) / Fold change /veh REEP3 (11722064_at) / RFU IGLL1 (11728026_x_at) / Fold change /veh IGLL1 (11728026_x_at): dose or concentration left out as unconfirmed. The following applies: ProbeSet 11717876_a_at; LIST D.

This is an account of results in PMC5218480 (PLoS ONE, 2017).

As for `Nc1ccc(-c2cccs2)cc1NC(=O)c1ccc2c(c1)cc(C1CC1)n2CCN1CCOCC1` [ACY-1035], the “Fold change vs veh, PPFIA1” value is recorded as 0.87.
